# Measured values as given in patent US8362235B2, “Carboxamide compounds and methods for using the same” (Rigel Pharmaceuticals, Inc., priority 2009, dated 2013).
# Target: AMPK
# Assay: AMPK activation, enzyme-linked immunosorbent assay
# Settings: ELISA
# Procedure: Compounds 1-8 were assayed for their ability to activate AMPK using an enzyme-linked immunosorbent assay.
row,EC50 [nM],SMILES
1,< 500,"N#Cc1ccc(CN2CCC(NC(=O)c3ccc(C(=O)N4CCN(Cc5ccc(F)cc5)CC4)cn3)CC2)cc1 [Compound 2, N-(1-(4-cyanobenzyl)piperidin-4-yl)-5-(4-(4-fluorobenzyl)piperazine-1-carbonyl)picolinamide]"
2,< 500,"N#Cc1ccc(CN2CCC(NC(=O)c3ccc(C(=O)N4CCN(Cc5ccc(C(F)(F)F)cc5)CC4)cn3)CC2)cc1 [Compound 3, N-(1-(4-cyanobenzyl)piperidin-4-yl)-5-(4-(4-(trifluoromethyl)benzyl)piperazine-1-carbonyl)picolinamide]"
3,500 to 1000,"N#Cc1ccc(CN2CC[C@H](NC(=O)c3ccc(C(=O)N4CCN(c5ccc(Cl)cc5)CC4)cn3)C2)cc1 [Compound 6, (S)-5-(4-(4-chlorophenyl)piperazine-1-carbonyl)-N-(1-(4-cyanobenzyl)pyrrolidin-3-yl)picolinamide]"
4,1000 to 5000,"O=C(NC1CCN(Cc2ccc(C(F)(F)F)cc2)C1)c1ccc(C(=O)N2CCN(c3ccc(Cl)cc3)CC2)cn1 (stereo not shown) [Compound 8, 5-(4-(4-chlorophenyl)piperazine-1-carbonyl)-N-(1-(4-(trifluoromethyl)benzyl)pyrrolidin-3-yl)picolinamide]"
